# Assay results as given in patent US20070015223A1, “Method of detecting substance to be analyzed” (OLYMPUS CORPORATION, priority 2003, published 2007).
# Assays:
# [1] = system: genes to be analyzed in rat liver; assay: microarray expression level ratio, tyramide reaction time adjusted by GAPDH spot signal intensity (Example 7, Table 1)
# [2] = system: genes to be analyzed in rat liver; assay: microarray expression level ratio, sample amount quantified and matched (Example 5, Table 2)
# [3] = system: genes to be analyzed in rat liver; assay: microarray expression level ratio, control experiment with fixed tyramide reaction time of 5 minutes (Table 3)
# [4] = Phenobal group rat liver, aRNA 400 ng, Deposition Time 2 min.
# [5] = rat liver, aRNA 400 ng vs 100 ng, Deposition Time 2 min. vs 7 min.
# [6] = Phenobal group rat liver, aRNA 200 ng, Deposition Time 5 min.
# [7] = rat liver, aRNA 200 ng both, Deposition Time 5 min. both
# [8] = Phenobal group rat liver, aRNA 400 ng, Deposition Time 5 min.
# [9] = rat liver, aRNA 400 ng vs 100 ng, Deposition Time 5 min. both, corrected using the internal standard gene
smiles,measurement,setting,value
"CCC1(c2ccccc2)C(=O)NC(=O)NC1=O [Phenobal, phenobarbital]","Raw Data (spot signal intensity), Gene A",[1]; [4],680
same,"Raw Data (spot signal intensity), Gene B",[1]; [4],750
same,"Raw Data (spot signal intensity), Gene C",[1]; [4],250
same,"Raw Data (spot signal intensity), Gene D",[1]; [4],2800
same,"Raw Data (spot signal intensity), Gene E",[1]; [4],500
same,"Raw Data (spot signal intensity), Gene F",[1]; [4],60
same,"Raw Data (spot signal intensity), Gene GAPDH","[1]; internal standard gene, Phenobal group rat liver, aRNA 400 ng, Deposition Time 2 min.",2500
same,"Ratio (Phenobal/Control), Gene GAPDH","[1]; internal standard gene, rat liver, aRNA 400 ng vs 100 ng, Deposition Time 2 min. vs 7 min.",1.0
same,"Ratio (Phenobal/Control), Gene A",[1]; [5],1.8
same,"Ratio (Phenobal/Control), Gene B",[1]; [5],2.8
same,"Ratio (Phenobal/Control), Gene C",[1]; [5],0.5
same,"Ratio (Phenobal/Control), Gene D",[1]; [5],1.9
same,"Ratio (Phenobal/Control), Gene E",[1]; [5],0.2
same,"Ratio (Phenobal/Control), Gene F",[1]; [5],1.2
same,"Raw Data (spot signal intensity), Gene a",[2]; [6],650
same,"Raw Data (spot signal intensity), Gene b",[2]; [6],745
same,"Raw Data (spot signal intensity), Gene c",[2]; [6],255
same,"Raw Data (spot signal intensity), Gene d",[2]; [6],2900
same,"Raw Data (spot signal intensity), Gene e",[2]; [6],550
same,"Raw Data (spot signal intensity), Gene f",[2]; [6],65
same,"Raw Data (spot signal intensity), Gene GAPDH","[2]; internal standard gene, Phenobal group rat liver, aRNA 200 ng, Deposition Time 5 min.",2500
same,"Ratio (Phenobal/Control), Gene GAPDH","[2]; internal standard gene, rat liver, aRNA 200 ng both, Deposition Time 5 min. both",1.0
same,"Ratio (Phenobal/Control), Gene a",[2]; [7],1.8
same,"Ratio (Phenobal/Control), Gene b",[2]; [7],2.6
same,"Ratio (Phenobal/Control), Gene c",[2]; [7],0.5
same,"Ratio (Phenobal/Control), Gene d",[2]; [7],2.1
same,"Ratio (Phenobal/Control), Gene e",[2]; [7],0.2
same,"Ratio (Phenobal/Control), Gene f",[2]; [7],1.1
same,"Raw Data (spot signal intensity), Gene a",[3]; [8],1700
same,"Raw Data (spot signal intensity), Gene b",[3]; [8],1875
same,"Raw Data (spot signal intensity), Gene c",[3]; [8],625
same,"Raw Data (spot signal intensity), Gene d",[3]; [8],4095
same,"Raw Data (spot signal intensity), Gene e",[3]; [8],1250
same,"Raw Data (spot signal intensity), Gene f",[3]; [8],150
same,"Raw Data (spot signal intensity), Gene GAPDH","[3]; internal standard gene, Phenobal group rat liver, aRNA 400 ng, Deposition Time 5 min.",4095
same,"Ratio (Phenobal/Control), Gene GAPDH","[3]; internal standard gene, rat liver, aRNA 400 ng vs 100 ng, Deposition Time 5 min. both",1.0
same,"Ratio (Phenobal/Control), Gene a",[3]; [9],2.6
same,"Ratio (Phenobal/Control), Gene b",[3]; [9],4.1
same,"Ratio (Phenobal/Control), Gene c",[3]; [9],0.7
same,"Ratio (Phenobal/Control), Gene d",[3]; [9],1.6
same,"Ratio (Phenobal/Control), Gene e",[3]; [9],0.2
same,"Ratio (Phenobal/Control), Gene f",[3]; [9],1.6
